# According to EPA's ToxRefDB 2:
# Experiments:
# mouse [1] = conditions: Combined chronic toxicity/carcinogenicity; cd1; Oral; Feed; dose end: 104 week; group: systemic; systemic / in life observation / body weight / body weight gain + systemic / in life observation / clinical signs / lacrimation + systemic…
# rat [2] = conditions: Combined chronic toxicity/carcinogenicity, sprague dawley, Oral, Feed, dose end: 104 week, group: systemic
# rat [3] = conditions: Multigenerational reproductive toxicity study, sprague dawley, Oral, Feed, dose end: 2 generation
# rabbit [4] = conditions: Prenatal developmental toxicity study, new zealand white, Oral, Gavage/Intubation, dose end: 19 GD
# dog [5] = conditions: Chronic toxicity, beagle, Oral, Feed, dose end: 52 week, group: systemic
# rat [6] = conditions: Prenatal developmental toxicity study, other, Oral, Gavage/Intubation, dose end: 16 GD
# mouse [7] = conditions: Prenatal developmental toxicity study, other, Oral, Gavage/Intubation, dose end: 15 GD
# rat [8] = conditions: Subchronic oral toxicity in rodents, sprague dawley, Feed, dose end: 90 day, group: systemic
# rat [9] = conditions: Prenatal developmental toxicity study, sprague dawley, Oral, Feed, dose end: 16 GD
# rat [10] = conditions: Multigenerational reproductive toxicity study, other, Oral, Feed, dose end: 2 generation
# dog [11] = conditions: Subchronic oral toxicity in nonrodent, beagle, Feed, dose end: 90 day, group: systemic
# rabbit [12] = conditions: Prenatal developmental toxicity study, new zealand white, Oral, Gavage/Intubation, dose end: 19 GD; remark: listed apart in the source
# rat [13] = conditions: Prenatal developmental toxicity study, sprague dawley, Oral, Gavage/Intubation, dose end: 16 GD
# rat [14] = conditions: Combined chronic toxicity/carcinogenicity, sprague dawley, Oral, Feed, dose end: 2 year, group: systemic
# rat [15] = conditions: Prenatal developmental toxicity study, sprague dawley, Oral, Gavage/Intubation, dose end: 16 GD; remark: listed apart in the source
# [16] = systemic / pathology microscopic / eye / opacity
# [17] = group: offspring, systemic / in life observation / body weight / offspring (pup) weight gain + developmental / offspring survival late / [other] / [other]
# [18] = group: offspring, systemic / in life observation / body weight / offspring (pup) weight gain + developmental / offspring survival late / [other] / [other] + …
# [19] = group: parental, systemic / pathology microscopic / eye / cataract + systemic / in life observation / body weight / body weight gain + systemic / in life …
# [20] = group: parental, systemic / pathology microscopic / eye / cataract + systemic / in life observation / clinical signs / tongue ulcers
# [21] = group: developmental, developmental / developmental malformation / bone / incomplete ossification
# [22] = group: developmental, developmental / developmental malformation / bone / incomplete ossification + developmental / developmental malformation / bone / full …
# [23] = group: maternal, systemic / in life observation / body weight / body weight gain + systemic / in life observation / food consumption / food consumption
# [24] = group: maternal, systemic / in life observation / body weight / body weight gain + systemic / in life observation / food consumption / food consumption + …
# [25] = systemic / pathology microscopic / eye / opacity + systemic / organ weight / kidney / absolute + systemic / organ weight / kidney / relative…
# [26] = group: developmental, developmental / developmental malformation / bone / incomplete ossification + developmental / developmental malformation / bone / manus …
# [27] = group: maternal, systemic / in life observation / food consumption / food consumption
# [28] = group: developmental, developmental / developmental malformation / bone / [other] + developmental / developmental malformation / eye / open eye + developmental / …
# [29] = group: developmental, developmental / developmental malformation / bone / [other] + developmental / developmental malformation / heart / defect a-v septum + …
# [30] = group: maternal, systemic / in life observation / clinical signs / abnormal posture + systemic / in life observation / clinical signs / drooping eyelids (…
# [31] = group: maternal, systemic / in life observation / clinical signs / piloerection + systemic / in life observation / clinical signs / respiration (rales) + …
# [32] = group: developmental, developmental / developmental malformation / bone / extra ossification site + developmental / developmental malformation / bone / incomplete…
# [33] = group: maternal, reproductive / reproductive performance / resorptions / resorptions + systemic / in life observation / food consumption / food consumption…
# [34] = group: offspring, developmental / offspring survival late / viability index / viability index
# [35] = group: offspring, developmental / offspring survival late / viability index / viability index + systemic / in life observation / body weight / offspring (pup…
# [36] = group: parental, systemic / pathology microscopic / liver / hypertrophy + systemic / in life observation / body weight / body weight + systemic / pathology …
# [37] = group: parental, systemic / pathology microscopic / liver / hypertrophy + systemic / in life observation / mortality / mortality
# [38] = group: reproductive, reproductive / reproductive performance / gestational length / gestational length
# [39] = group: reproductive, reproductive / reproductive performance / gestational length / gestational length + reproductive / offspring survival early / litter size / …
# [40] = systemic / pathology microscopic / stomach / hyperplasia
# [41] = group: developmental, systemic / in life observation / body weight / fetal weight
# [42] = group: maternal, reproductive / reproductive performance / aborted / aborted + reproductive / reproductive performance / resorptions / resorptions + systemic…
# [43] = group: developmental, developmental / developmental malformation / kidney / absent renal papilla + developmental / developmental malformation / ureter / …
# [44] = group: maternal, systemic / organ weight / liver / relative to body weight
# [45] = group: maternal, systemic / organ weight / liver / relative to body weight + systemic / in life observation / body weight / body weight gain + systemic / in …
# [46] = systemic / organ weight / liver / relative to body weight + systemic / pathology microscopic / liver / hypertrophy
# [47] = systemic / organ weight / liver / relative to body weight + systemic / pathology microscopic / liver / hypertrophy + systemic / clinical …
# [48] = group: developmental, developmental / developmental malformation / kidney / small renal papilla + developmental / developmental malformation / ureter / distended
# [49] = group: developmental, developmental / developmental malformation / kidney / small renal papilla + developmental / developmental malformation / ureter / distended…
structure (smiles),measurement,setting,value
[Br-].[Br-].c1cc[n+]2c(c1)-c1cccc[n+]1CC2 [Diquat dibromide],LEL,mouse [1],12 mg/kg/day
same,LOAEL,mouse [1],12 mg/kg/day
same,NEL,mouse [1],3.56 mg/kg/day
same,NOAEL,mouse [1],3.56 mg/kg/day
same,LOAEL,rat [2]; systemic / pathology microscopic / eye / cataract,0.58 mg/kg/day
same,NOAEL,rat [2]; systemic / pathology microscopic / eye / cataract + systemic / in life observation / body weight / body weight gain + systemic / pathology …,0.19 mg/kg/day
same,LEL,rat [2]; [16],0.24 mg/kg/day
same,NEL,rat [2]; [16],< 0.24 mg/kg/day
same,NEL,rat [3]; [17],4 mg/kg/day
same,NOAEL,rat [3]; [17],4 mg/kg/day
same,LEL,rat [3]; [18],12 mg/kg/day
same,LOAEL,rat [3]; [18],12 mg/kg/day
same,NEL,rat [3]; [19],0.8 mg/kg/day
same,NOAEL,rat [3]; [19],0.8 mg/kg/day
same,LEL,rat [3]; [20],4 mg/kg/day
same,LOAEL,rat [3]; [20],4 mg/kg/day
same,LEL,rabbit [4]; [21],1 mg/kg/day
same,NEL,rabbit [4]; [21],< 1 mg/kg/day
same,LOAEL,rabbit [4]; [22],10 mg/kg/day
same,NOAEL,rabbit [4]; [22],3 mg/kg/day
same,LEL,rabbit [4]; [23],3 mg/kg/day
same,LOAEL,rabbit [4]; [23],3 mg/kg/day
same,NEL,rabbit [4]; [24],1 mg/kg/day
same,NOAEL,rabbit [4]; [24],1 mg/kg/day
same,LOAEL,dog [5]; systemic / pathology microscopic / eye / opacity + systemic / organ weight / epididymis / relative to body weight,2.5 mg/kg/day
same,LEL,dog [5]; systemic / pathology microscopic / eye / opacity + systemic / organ weight / epididymis / relative to body weight + systemic / pathology …,2.5 mg/kg/day
same,NEL,dog [5]; [25],0.5 mg/kg/day
same,NOAEL,dog [5]; [25],0.5 mg/kg/day
same,LEL,rat [6]; [26],40 mg/kg/day
same,LOAEL,rat [6]; [26],40 mg/kg/day
same,NEL,rat [6]; [26],12 mg/kg/day
same,NOAEL,rat [6]; [26],12 mg/kg/day
same,LOAEL,rat [6]; [23],12 mg/kg/day
same,NOAEL,rat [6]; [24],4 mg/kg/day
same,LEL,rat [6]; [27],4 mg/kg/day
same,NEL,rat [6]; [27],< 4 mg/kg/day
same,LOAEL,mouse [7]; [28],2 mg/kg/day
same,NOAEL,mouse [7]; [28],1 mg/kg/day
same,LEL,mouse [7]; [29],1 mg/kg/day
same,NEL,mouse [7]; [29],< 1 mg/kg/day
same,LOAEL,mouse [7]; [30],2 mg/kg/day
same,NOAEL,mouse [7]; [30],1 mg/kg/day
same,LEL,mouse [7]; [31],1 mg/kg/day
same,NEL,mouse [7]; [31],< 1 mg/kg/day
C[Si](Cn1cncn1)(c1ccc(F)cc1)c1ccc(F)cc1 [Flusilazole],LOAEL,rat [8]; systemic / clinical chemistry / cholesterol / cholesterol + systemic / pathology microscopic / urinary bladder / hyperplasia,27 mg/kg/day
same,NOAEL,rat [8]; systemic / clinical chemistry / cholesterol / cholesterol + systemic / pathology microscopic / urinary bladder / hyperplasia + systemic / …,9 mg/kg/day
same,LEL,rat [8]; systemic / in life observation / body weight / body weight,11 mg/kg/day
same,NEL,rat [8]; systemic / in life observation / body weight / body weight + systemic / clinical chemistry / cholesterol / cholesterol + systemic / organ …,2 mg/kg/day
same,LOAEL,rat [9]; [32],300 ppm
same,NEL,rat [9]; [32],50 ppm
same,NOAEL,rat [9]; [32],100 ppm
same,LEL,"rat [9]; group: developmental, developmental / developmental malformation / bone / extra ossification site + developmental / developmental malformation / bone / unossified",100 ppm
same,LOAEL,"rat [9]; group: maternal, reproductive / reproductive performance / resorptions / resorptions + systemic / in life observation / food consumption / food consumption",300 ppm
same,LEL,rat [9]; [33],300 ppm
same,NEL,rat [9]; [33],100 ppm
same,NOAEL,rat [9]; [33],100 ppm
same,NEL,rat [10]; [34],3.5 mg/kg/day
same,NOAEL,rat [10]; [34],3.5 mg/kg/day
same,LEL,rat [10]; [35],17.5 mg/kg/day
same,LOAEL,rat [10]; [35],17.5 mg/kg/day
same,LEL,rat [10]; [36],3.5 mg/kg/day
same,LOAEL,rat [10]; [36],3.5 mg/kg/day
same,NEL,rat [10]; [37],0.35 mg/kg/day
same,NOAEL,rat [10]; [37],0.35 mg/kg/day
same,NEL,rat [10]; [38],3.5 mg/kg/day
same,NOAEL,rat [10]; [38],3.5 mg/kg/day
same,LEL,rat [10]; [39],17.5 mg/kg/day
same,LOAEL,rat [10]; [39],17.5 mg/kg/day
same,NOAEL,dog [11]; systemic / organ weight / liver / absolute + systemic / organ weight / liver / relative to body weight + systemic / clinical chemistry / …,0.9 mg/kg/day
same,LOAEL,dog [11]; systemic / organ weight / liver / absolute + systemic / organ weight / liver / relative to body weight + systemic / pathology microscopic / …,4.3 mg/kg/day
same,LEL,dog [11]; [40],0.9 mg/kg/day
same,NEL,dog [11]; [40],< 0.9 mg/kg/day
same,LEL,rabbit [12]; [41],35 mg/kg/day
same,LOAEL,rabbit [12]; [41],35 mg/kg/day
same,NEL,rabbit [12]; [41],12 mg/kg/day
same,NOAEL,rabbit [12]; [41],12 mg/kg/day
same,LEL,rabbit [12]; [42],35 mg/kg/day
same,LOAEL,rabbit [12]; [42],35 mg/kg/day
same,NEL,rabbit [12]; [42],12 mg/kg/day
same,NOAEL,rabbit [12]; [42],12 mg/kg/day
same,LEL,rat [13]; [43],0.4 mg/kg/day
same,LOAEL,rat [13]; [43],0.4 mg/kg/day
same,NEL,rat [13]; [43],< 0.4 mg/kg/day
same,NOAEL,rat [13]; [43],< 0.4 mg/kg/day
same,LEL,rat [13]; [44],50 mg/kg/day
same,LOAEL,rat [13]; [44],50 mg/kg/day
same,NEL,rat [13]; [45],10 mg/kg/day
same,NOAEL,rat [13]; [45],10 mg/kg/day
same,LEL,rat [14]; [46],2.6 mg/kg/day
same,LOAEL,rat [14]; [46],2.6 mg/kg/day
same,NEL,rat [14]; [47],0.53 mg/kg/day
same,NOAEL,rat [14]; [47],0.53 mg/kg/day
same,LEL,rat [15]; [48],10 mg/kg/day
same,LOAEL,rat [15]; [48],10 mg/kg/day
same,NEL,rat [15]; [49],2 mg/kg/day
same,NOAEL,rat [15]; [49],2 mg/kg/day
same,LEL,rat [15]; [24],100 mg/kg/day
same,LOAEL,rat [15]; [24],100 mg/kg/day
same,NEL,rat [15]; [24],10 mg/kg/day
same,NOAEL,rat [15]; [24],10 mg/kg/day
